In general, IC50 refers to the concentration at which inhibition is half-maximal.

In data set [1] the test system is Kunming mice. Put plainly: Acute oral toxicity test in mice. The settings on record: mouse, in vivo. The text has this:
SPF-grade healthy Kunming mice (weighing 20 ± 2 g) were purchased from Henan Skibbes Bio-technology Co., Ltd (Licence No.: SCXK (Yu) 2020–0005). The mice were provided free access to drinking water and adaptive feeding for 7 days.
Twenty Kunming mice (half male and half female) were randomly allocate into 4 groups: 7a-treated group (male), 7a-treated group (female), control group (male) and control group (female). The control groups were given PBS intragastric administration, while the 7a groups were given the 7a solution (400 mg/kg, respectively), once a day for 2 consecutive days. Body weight and appearance were monitored for a total period of 12 days (from the first day after treating with 7a). The mice were killed by cervical dislocation on the 12th day, and blood samples were collected for the biochemistry test. Then, we measured liver and kidney function indicators such as alanine aminotransferase (ALT), aspartate aminotransferase (AST), serum creatinine (CRE) and blood urea nitrogen (BUN) (Nanjing Jiancheng Bioengineering Institute, China). The organs (brain, heart, liver, spleen, lungs, kidneys stomach) were harvested, and fixed in 10% formaldehyde and paraffin-embedded for histological examination. Finally, these sections were stained with haematoxylin and eosin for light microscopic examination.

Data set [2] has as its system H1299 cells. Briefly: DAPI staining for cell apoptosis. Type of data set: cell-based, human. The settings on record: H1299, 2, 4 and 8 μmol/L, 48 h. The protocol:
In order to further verify the apoptotic activity induced by 7a and 7j in lung cancer cells, H1299 cells were treated with different concentrations of compounds 7a and 7j for 48 h, followed by DAPI staining. […] As the drug concentration increased, nuclear staining intensified, and even nuclear condensation and fragmentation phenomena were observed.
H1299 (1.5 × 10^4 ~ 2 × 10^4 /well) cells were seeded in 24-well plates for 24 h, and then treated with 7a or 7j at the concentrations of 2,4 and 8 μmol/L for 48 h., the cells were fixed for 30 min at room temperature in 4% paraformaldehyde and washed 3 times in PBS. Finally, every well was stained with DAPI (10 µg/mL, C0065, Solarbio) at room temperature for 30 min, and washed at least three times in PBS. The fluorescence microscope was used to observe the morphological changes of cell nuclei.

The test system of data set [3] is H1299 cells. Put plainly: Wound healing assay. Conditions: 24 h. The data set is classed as cell-based, human. Here is the method: H1299 cells were seeded in a 6-well plate, When the cell confluency reached 95%, a wound line was scratched using a 200 µl pipette tip, and then washed three times, fresh medium containing 7a or 7j (2, 4 and 8 μmol/L) was added, and the plate was incubated at 37 °C with 5% CO2. All the images were captured at 0 h and 24 h under an inverted microscope, and the quantification of scratches was analysed using Image J.

The test system of data set [4] is A549 cells. Put plainly: CCK-8 assay for cell proliferation and cytotoxicity, A549. Conditions: Homo sapiens, CCK-8, 48 h. The data set is classed as cell-based. Here is the method: A549 cells were cultured in a humidified incubator at 37 °C with 5% CO2 in Ham’s F-12 K (PM150910, Procell) supplemented with 10% FBS and 1% Penicillin Streptomycin.
(§1) Three types of lung cells were seeded into 96-well plate at a density of 5 × 10^3 cells per well at logarithmic growth phase and cultured in 37 °C. […] After that, cell viability was determined according to the instruction of the CCK-8 assay. Next, 10 μL of CCK-8 solution was added to each well of the plate and incubate the plate for 1–4 h in the incubator. The absorbance was measured at 450 nm using a microplate reader (Bio-Tek). The percentage of viable cells was measured using the following formula where three independent experiments were performed: [(A450 sample − A450blank)/(A450 control − A450blank)] × 100%.
For orientation: Formazan colour is commonly taken as a measure of viable cells.

For data set [5], the system named is NCI-H1299 cells. Briefly: CCK-8 assay for cell proliferation and cytotoxicity, NCI-H1299. The data set is classed as cell-based. The settings on record: Homo sapiens, CCK-8, 48 h. The protocol:
as §1

The test system of data set [6] is H1299 cells. Put plainly: Transwell migration assay. Type of data set: cell-based, human. Conditions: H1299, 2, 4 and 8 μmol/L, 24 h, vs normal control, p < 0.01. Here is the method:
Transwell chamber migration assay is another important method to assess cell migration ability. Tumor cells are seeded in the chamber, and the number of tumor cells that pass through the membrane is counted to evaluate the migration ability of tumor cells.
Transwell assay was used to determine the migration ability of H1299 cells. Cells were starved in serum-free RPMI 1640 medium for 24 h, then detached and resuspended in serum-free RPMI 1640 medium. 5 × 10^5 cells/mL were inoculated into the upper chamber of a 24-well Transwell plate (Corning Inc., United States), with a volume of 100 µl per well. Then, 100 µL serum-free medium containing 7a or 7j (2, 4 and 8 μmol/L) was added to the upper chamber and the lower chamber was filled with 700 µL medium containing 20% FBS. After incubation for 24 h, H1299 cells on the upper membrane of the transwell were wiped off. The migrated cells were treated with 4% paraformaldehyde for 20 min, stained with 0.1% crystal violet for 20 min and washed three times with PBS. The number of H1299 cells that migrated to the underside of the membrane was counted under the inverted fluorescence microscope. Three randomly selected areas from each transwell were photographed and calculated using Image J.

The test system of data set [7] is Bcl-2, caspase9, Cleaved-Caspase3, Cleaved-PARP, MMP9 in H1299 cells. Put plainly: Western blot of apoptosis- and migration-related proteins. The data set is classed as cell-based, human. Conditions: H1299, 4, 8 or 16 μM, 48 h. An excerpt: We conducted an in-depth investigation into the mechanism of apoptosis induced by compounds 7a and 7j. The Bcl-2 protein family is located upstream of the apoptosis signaling pathway. Bcl-2 proteins play an anti-apoptotic role by inhibiting the release of cytochrome C (cyt-c) from mitochondria. Previous literature reports that many anticancer drugs induce apoptosis by downregulating Bcl-2 expression. During apoptosis, the expression of Bcl-2 is inhibited, cyt-c is released, and it binds with the apoptotic protease activation factor to form the apoptosome. This triggers a cascade reaction of Caspase family proteins, with apoptosome promoting the activation of Caspase9. Activated Caspase9 then activates Caspase3, forming the Caspase3 cleavage body, which further activates downstream PARP protein, ultimately promoting cell apoptosis. […] After treating H1299 cells with different concentrations of compounds for 48 h, cell proteins were extracted, and western blot was used to detect the expression changes of apoptosis-related proteins.
Firstly, H1299 cells were treated with different concentrations concentrations of 7a and 7j at 4, 8 and 16 μmol/L for 48 h, cells were harvested using RIPA lysate (R0010, Solarbio) and centrifuged at 12,000 rpm for 15 min at 4 °C, and then the concentration of total protein was measured and taken from the supernatant. Protein was separated by 12% SDS–polyacrylamide gel electrophoresis and transferred to nitrocellulose filter membrane. after blocking in 5% milk for 2 h, the membranes were incubated with specific primary antibody at 4 °C overnight. Next day, NC membranes were incubated for 1 h at room temperature with appropriate secondary antibodies, and then Protein bands was visualizing by chemiluminescence detection (ECL kit, Genview).

Take `COc1cc2ncnc(Nc3cccc(-c4cn(Cc5cc(F)ccc5Br)nn4)c3)c2cc1OCCCN1CCOCC1` [Compound 7a]: in data set [1], the “acute toxicity in mice” value is recorded as “low toxicity”. Further, the “apoptotic morphology by DAPI staining” value in data set [2] was “exhibited typical apoptotic features”. Further, in data set [3] (H1299, 2 μmol/L), the migration closure rate is reported as 65.16 ± 7.88%. Moreover, the migration closure rate in data set [3] (H1299, 4 μmol/L) is 50.12 ± 2.99%. Further, the migration closure rate in data set [3] (H1299, 8 μmol/L) is on record as 23.54 ± 3.65%. For the same compound, in data set [4], it took 3.16 ± 0.11 µM to reach half-maximal inhibition (IC50). This compound also gave an IC50 in data set [5] of 3.94 ± 0.17 µM. Moreover, the “number of cells passing through the membrane to the lower surface of the chamber” value in data set [6] was “significantly decreased”. Further, in data set [7], the “Bcl-2 protein expression level” value was “decrease”, the “Cleaved-Caspase3 protein expression level” value is “increased”, the “Cleaved-PARP protein expression level” value is “increased” and the MMP9 protein expression result is on record as “downregulated”. In data set [7], the “caspase9 protein expression level” value was “decrease”.

The values are drawn from PMC11035632, “Discovery of gefitinib-1,2,3-triazole derivatives against lung cancer via inducing apoptosis and inhibiting the colony formation” (Scientific Reports, 2024).
